Here are results for 2 molecules from patent publication US20150023884A1, “Antiperspirant Spray Devices and Compositions” (The Procter & Gamble Company, priority 2013, published 2015).

On this series, the source says:
Solubility may be determined by measuring the amount of light transmittance (a light transmittance value) through a simple mixture of the non-volatile silicone fluid and liquid activation enhancer at the same weight/weight concentrations as in a final antiperspirant composition.
Solubility of a liquid activation enhancer in a non-volatile silicone may be determined by measuring the amount of light transmittance (light transmittance value) through a simple mixture of the non-volatile silicone fluid and liquid activation enhancer at the same weight/weight concentrations as in a final antiperspirant composition.
The Spectronic Genesys 10 Vis utilizes a tungsten-halogen light source and has a spectral bandwidth of 5 nm, a wavelength range of 325 to 1100 nm, accuracy of ±1 nm and a repeatability of ±0.5 nm. Readouts include absorbance, transmittance and concentration. The spectrophotometer is set to 640 nm wavelength and the percent transmittance mode/readout. Polystyrene spectrometer cuvettes having a 1 cm optical light path and transmittance between ˜340 nm and ˜900 nm are used. One suitable example of a spectrometer cuvette is available from VWR International LLC under Catalog #97000-584 having a 2.5 to 4.5 ml capacity. […] The sample cuvettes are shaken well just prior to taking a light transmittance reading.

On to `CCCCCCCCCCCCCC(C)C` [isohexadecane], for which the light transmittance value entry was “about 100%”.

For `CCCCCCCCCCCCCCCCCC(=O)OCCCC` [butyl stearate], the light transmittance value result was “about 100%”.
